We go through 17 compounds from patent US11945801B2, “Bicyclic aza compounds as muscarinic M1 and/or M4 receptor agonists” (Heptares Therapeutics Limited, priority 2018, dated 2024).

The term Emax denotes the size of the effect at its maximum, as opposed to the concentration needed.

Assay [1] deals with T1, human muscarinic M4 receptor (Homo sapiens, UniProt P08173).
T1 construct: expressed in transfected cells
T1 sequence (P08173 1-479): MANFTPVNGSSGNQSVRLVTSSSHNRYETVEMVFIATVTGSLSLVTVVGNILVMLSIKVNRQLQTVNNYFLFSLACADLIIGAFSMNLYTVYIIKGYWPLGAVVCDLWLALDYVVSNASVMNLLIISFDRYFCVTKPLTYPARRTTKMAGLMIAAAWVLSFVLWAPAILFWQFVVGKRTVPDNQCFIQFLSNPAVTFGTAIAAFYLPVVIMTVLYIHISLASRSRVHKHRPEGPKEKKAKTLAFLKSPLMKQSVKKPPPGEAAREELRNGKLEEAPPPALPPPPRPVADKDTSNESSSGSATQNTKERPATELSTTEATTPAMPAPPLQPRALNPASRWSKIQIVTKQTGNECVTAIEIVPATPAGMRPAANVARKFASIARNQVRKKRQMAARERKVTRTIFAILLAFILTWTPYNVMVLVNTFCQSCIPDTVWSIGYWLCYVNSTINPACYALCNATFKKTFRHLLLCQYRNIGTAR
Kind of assay: Alphascreen Surefire phospho-ERK1/2 functional assay, M4. The following applies: for EC50 / % Emax cf. ACh, M4: CHO cells stably expressing human M4; for EC50: agonist 5 min, 37° C., read-out: pEC50 M4 (converted); for Emax: CHO. It counts as cell-based. As for the experimental part:
(§1) ERK1/2 phosphorylation is a downstream consequence of both Gq/11 and Gi/o protein coupled receptor activation, making it highly suitable for the assessment of M1, M3 (Gq/11 coupled) and M2, M4 receptors (Gi/o coupled), rather than using different assay formats for different receptor subtypes. CHO cells stably expressing the human muscarinic M1, M2, M3 or M4 receptor were plated (25K/well) onto 96-well tissue culture plates in MEM-alpha+10% dialysed FBS. Once adhered, cells were serum-starved overnight. Agonist stimulation was performed by the addition of 5 μL agonist to the cells for 5 min (37° C.). Media was removed and 50 μL of lysis buffer added. After […], a 4 μL sample was transferred to 384-well plate and 7 μL of detection mixture added.
(§2) Isomer assignment (Isomer 1, Isomer 2, etc.) is based on the retention time of the compound using the separation technique that was performed in the final purification step. By implication, this could be reversed phase HPLC, chiral HPLC or chiral SFC retention time, and this will vary from compound to compound.
On the technique in general: Alpha assays give light when donor and acceptor beads are brought close together.

Assay [2] concerns the target T2, human muscarinic M1 receptor (Homo sapiens, UniProt P11229).
T2 sequence (P11229 1-460): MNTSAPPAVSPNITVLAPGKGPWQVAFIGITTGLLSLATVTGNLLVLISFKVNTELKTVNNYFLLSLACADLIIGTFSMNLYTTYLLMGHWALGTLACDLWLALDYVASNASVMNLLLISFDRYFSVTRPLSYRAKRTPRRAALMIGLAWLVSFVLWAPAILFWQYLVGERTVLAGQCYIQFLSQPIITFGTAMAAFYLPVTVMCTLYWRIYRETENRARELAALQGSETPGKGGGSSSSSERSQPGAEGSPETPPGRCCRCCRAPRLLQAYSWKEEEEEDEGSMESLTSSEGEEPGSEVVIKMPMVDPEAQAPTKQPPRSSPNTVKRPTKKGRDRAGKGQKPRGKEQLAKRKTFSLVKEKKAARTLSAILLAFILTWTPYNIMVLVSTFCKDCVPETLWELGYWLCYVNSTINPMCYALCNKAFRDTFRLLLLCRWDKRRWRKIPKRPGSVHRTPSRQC
Kind of assay: Alphascreen Surefire phospho-ERK1/2 functional assay, M1. It counts as cell-based. The following applies: for EC50: agonist 5 min, 37° C.; for Emax: CHO. As for the experimental part:
as §1, §2

Where [3] appears, read: read-out: % Emax cf. ACh, M4, CHO cells stably expressing human M4, Emax relative to ACh.
Where [4] appears, read: CHO cells stably expressing human M1, read-out: pEC50 M1 (converted).
[5] abbreviates: read-out: % Emax cf. ACh, M1, CHO cells stably expressing human M1, Emax relative to ACh.

The structures appear in SMILES notation. Where two headings read alike, the source gives them in different places. Where only a bound is given, the exact number is not on record here.

Take `CCN(CC)C(=O)OC1CN(C2CCC3(C2)CN(C(=O)OC)C3)C1` (single isomer, unassigned) [Example 4-6 Isomer 1, Methyl 6-(3-((diethylcarbamoyl)oxy)azetidin-1-yl)-2-azaspiro[3.4]octane-2-carboxylate]: the EC50 in assay [1] is 1120 nM; in assay [2] (setting [4]) it was 631 nM. In addition, the results for the Emax in assay [1] (setting [3]) and in assay [2] (setting [5]) were 33% and 92%, respectively.
In the case of `CCOC(=O)N1CC2CCC1CC2N1CC(OC(=O)N2CCCCC2)C1` (single isomer, unassigned) [Example 6-3 Isomer 1, Ethyl 5-(3-((piperidine-1-carbonyl)oxy)azetidin-1-yl)-2-azabicyclo[2.2.2]octane-2-carboxylate], the figures for the EC50 in assay [1] and in assay [2] (setting [4]) were 1620 nM and 355 nM, respectively. Moreover, the Emax came out at 35% in assay [1] (setting [3]) and 92% in assay [2] (setting [5]).
In the same order, the values of `CCOC(=O)N1CC2(CC(N3CC(OC(=O)N(CC)CC)C3)C2)C1` [Example 4-1, Ethyl 6-(3-((diethylcarbamoyl)oxy)azetidin-1-yl)-2-azaspiro[3.3]heptane-2-carboxylate] are 1700 nM, 832 nM, 57% and 83%.
Consider `CCOC(=O)N1C2CCC1CC(N1CC(OC(=O)N3CCCOCC3)C1)C2` (mixture of isomers) [Example 5-2 Isomer mixture, 1-(8-(Ethoxycarbonyl)-8-azabicyclo[3.2.1]octan-3-yl)azetidin-3-yl 1,4-oxazepane-4-carboxylate], for which the values for the EC50 in assay [1] and in assay [2] (setting [4]) were over 20000 nM and 2240 nM, respectively. The Emax in assay [1] (read-out: % Emax cf. ACh, M4) was 19%; in assay [2] (read-out: % Emax cf. ACh, M1), 92%.
In the case of `CCOC(=O)N1CC2(CCC(N3CC(OC(=O)N4CCCOCC4)C3)C2)C1` (single isomer, unassigned) [Example 4-9 Isomer 2, 1-(2-(Ethoxycarbonyl)-2-azaspiro[3.4]octan-6-yl)azetidin-3-yl 1,4-oxazepane-4-carboxylate], the “% Emax cf. ACh, M4” value in assay [1] (Emax relative to ACh, listed as 4-9 Isomer 2) is 85%. The EC50 was 389 nM in assay [1] and 5620 nM in assay [2] (setting [4]). For the same compound, the “% Emax cf. ACh, M1” value in assay [2] (CHO cells stably expressing human M1, Emax relative to ACh, listed as 4-9 Isomer 2) is 84%.
As to `CCOC(=O)N1CCC2(CC(N3CC(OC(=O)N4CCCOCC4)C3)C2)C1` (single isomer, unassigned) [Example 4-3 Isomer 2, 1-(6-(Ethoxycarbonyl)-6-azaspiro[3.4]octan-2-yl)azetidin-3-yl 1,4-oxazepane-4-carboxylate], the figures for the EC50 in assay [1] and in assay [2] (setting [4]) were 1020 nM and 372 nM, respectively. In addition, the Emax in assay [1] (setting [3]) was found to be 46%; in assay [2] (setting [5]), 104%.
`CCOC(=O)N1C2CCC1CC(N1CC(CC(=O)N3CCC34CCC4)C1)C2` (single isomer, unassigned) [Example 1-3 Isomer 2, Ethyl-3-(3-(2-oxo-2-(1-azaspiro[3.3]heptan-1-yl)ethyl)azetidin-1-yl)-8-azabicyclo[3.2.1]octane-8-carboxylate]: the EC50 in assay [1] is over 20000 nM; in assay [2] (setting [4]), 115 nM. The Emax in assay [1] (read-out: % Emax cf. ACh, M4) came to 19%; in assay [2] (read-out: % Emax cf. ACh, M1), 103%.
On to `CCOC(=O)N1CC2CCC1CC2N1CC(OC(=O)N(CC)CC)C1` (single isomer, unassigned) [Example 6-1 Isomer 1, Ethyl 5-(3-((diethylcarbamoyl)oxy)azetidin-1-yl)-2-azabicyclo[2.2.2]octane-2-carboxylate], for which the EC50 in assay [1] was over 20000 nM; in assay [2] (setting [4]), 1050 nM. In addition, the figures for the Emax in assay [1] (setting [3]) and in assay [2] (setting [5]) were 9% and 65%, respectively.
Turning to `CCOC(=O)N1CC2CCC1CC2N1CC(OC(=O)N2CCCC2)C1` (single isomer, unassigned) [Example 6-2 Isomer 1, Ethyl 5-(3-((pyrrolidine-1-carbonyl)oxy)azetidin-1-yl)-2-azabicyclo[2.2.2]octane-2-carboxylate], the EC50 in assay [1] is 646 nM; in assay [2] (setting [4]) it was 6920 nM. Also, the Emax in assay [1] (setting [3]) worked out at 55%; in assay [2] (setting [5]) it was 83%.
In the case of `CCOC(=O)N1C2CCCC1CC(N1CC(OC(=O)N(CC)CC)C1)C2` (single isomer, unassigned) [Example 7-1 Isomer 1, Ethyl 3-(3-((diethylcarbamoyl)oxy)azetidin-1-yl)-9-azabicyclo[3.3.1]nonane-9-carboxylate], the EC50 is 2290 nM in assay [1] and 1290 nM in assay [2] (pEC50 M1, CHO cells stably expressing human M1). Besides, the Emax came out at 29% in assay [1] (read-out: % Emax cf. ACh, M4) and 88% in assay [2] (read-out: % Emax cf. ACh, M1).
On to `CCOC(=O)N1C2CCCC1CC(N1CC(CC(=O)N(CC)CC)C1)C2` (single isomer, unassigned) [Example 3-1 Isomer 1, Ethyl-3-(3-(2-(diethylamino)-2-oxoethyl)azetidin-1-yl)-9-azabicyclo[3.3.1]nonane-9-carboxylate], for which the EC50 was over 20000 nM in assay [1] and 813 nM in assay [2] (setting [4]). Moreover, the Emax in assay [1] (read-out: % Emax cf. ACh, M4) is 23%; in assay [2] (read-out: % Emax cf. ACh, M1), 106%.
The corresponding values for `CCOC(=O)N1C2CCC1CC(N1CC(CC(=O)N(CC)C(C)C)C1)C2` (mixture of isomers) [Example 1-2 Isomer mixture, Ethyl-3-(3-(2-(ethyl(isopropyl)amino)-2-oxoethyl)azetidin-1-yl)-8-azabicyclo[3.2.1]octane-8-carboxylate] are over 20000 nM, 182 nM, 7% and 100%.
Turning to `CCOC(=O)N1CC2(CCC(N3CC(OC(=O)N(CC)CC)C3)C2)C1` (single isomer, unassigned) [Example 4-5 Isomer 2, Ethyl 6-(3-((diethylcarbamoyl)oxy)azetidin-1-yl)-2-azaspiro[3.4]octane-2-carboxylate], the “% Emax cf. ACh, M4” value in assay [1] (Emax relative to ACh, listed as 4-5 Isomer 2) was determined as 10%. Besides, the EC50 in assay [1] is over 20000 nM; in assay [2] (setting [4]) it was 1120 nM. Also, the “% Emax cf. ACh, M1” value in assay [2] (CHO cells stably expressing human M1, Emax relative to ACh, listed as 4-5 Isomer 2) stood at 44%.
`CCOC(=O)N1C2COCC1CC(N1CC(OC(=O)N3CCCCCC3)C1)C2` (single isomer, unassigned) [Example 8-1 Isomer 1, Ethyl 7-(3-((azepane-1-carbonyl)oxy)azetidin-1-yl)-3-oxa-9-azabicyclo[3.3.1]nonane-9-carboxylate]: the results for the EC50 in assay [1] and in assay [2] (setting [4]) were 1860 nM and 257 nM, respectively. Besides, the Emax in assay [1] (read-out: % Emax cf. ACh, M4) stood at 43%; in assay [2] (read-out: % Emax cf. ACh, M1) it was 104%.
As for `CCOC(=O)N1CC2CCC1CC2N1CC(OC(=O)N2CCCOCC2)C1` (single isomer, unassigned) [Example 6-5 Isomer 1, 1-(2-(Ethoxycarbonyl)-2-azabicyclo[2.2.2]octan-5-yl)azetidin-3-yl 1,4-oxazepane-4-carboxylate], the values for the EC50 in assay [1] and in assay [2] (setting [4]) were over 20000 nM and 813 nM, respectively. Also, the Emax was determined as 27% in assay [1] (setting [3]) and 58% in assay [2] (setting [5]).
With `CCOC(=O)N1C2CCCC1CC(N1CC(CC(=O)N3CCCC3)C1)C2` (single isomer, unassigned) [Example 3-2 Isomer 1, Ethyl-3-(3-(2-oxo-2-(pyrrolidin-1-yl)ethyl)azetidin-1-yl)-9-azabicyclo[3.3.1]nonane-9-carboxylate], the EC50 in assay [1] is 933 nM; in assay [2] (setting [4]), 4790 nM. The Emax in assay [1] (read-out: % Emax cf. ACh, M4) is 68%; in assay [2] (read-out: % Emax cf. ACh, M1) it was 68%.
Consider `CCOC(=O)N1CC2CCC1CC2N1CC(CC(=O)N2CCCOCC2)C1` (single isomer, unassigned) [Example 2-4 Isomer 1, Ethyl-5-(3-(2-(1,4-oxazepan-4-yl)-2-oxoethyl)azetidin-1-yl)-2-azabicyclo[2.2.2]octane-2-carboxylate], for which the EC50 in assay [1] was over 20000 nM; in assay [2] (setting [4]), 1020 nM. Further, the Emax in assay [1] (setting [3]) was determined as 9%; in assay [2] (setting [5]), 58%.
